US12661410B2, “Compounds for targeted degradation of RET” (C4 Therapeutics, Inc., priority 2020, dated 2026)
Changes are numbered by the printed parent chain. Where two headings read alike, the source gives them in different places.

How the values were obtained:
RET (658-1114) = molecular target: T1, RET (658-1114) (Homo sapiens, UniProt P07949); assay: HiBiT-Degradation, RET wild-type degradation assay (Nano-Glo HiBiT Lytic), 293T.144 cells; format: cell-based; conditions: for DC50 / Emax: 6.0 hours
T1 construct: 658-1114; expressed in transfected cells; host or cells: 293T.144 (293T cells, generated in-house)
T1 sequence (P07949 658-1114): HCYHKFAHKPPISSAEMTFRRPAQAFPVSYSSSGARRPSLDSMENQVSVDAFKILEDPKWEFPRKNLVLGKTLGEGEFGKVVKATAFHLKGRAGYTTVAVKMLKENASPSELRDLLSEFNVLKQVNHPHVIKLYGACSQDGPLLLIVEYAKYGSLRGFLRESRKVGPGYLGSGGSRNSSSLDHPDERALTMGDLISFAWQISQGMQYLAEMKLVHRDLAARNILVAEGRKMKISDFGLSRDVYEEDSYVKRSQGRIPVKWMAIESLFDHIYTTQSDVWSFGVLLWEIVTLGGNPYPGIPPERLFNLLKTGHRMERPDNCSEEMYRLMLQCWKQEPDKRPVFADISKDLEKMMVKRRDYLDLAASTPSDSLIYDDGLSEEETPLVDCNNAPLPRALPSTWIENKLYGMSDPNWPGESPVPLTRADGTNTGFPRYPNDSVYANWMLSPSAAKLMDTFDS
Method in brief: (§1)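 Degradation after 6 h compound exposure (top 10 μM, 11 half-log points, duplicates) measured by Nano-Glo HiBiT lytic luminescence. Cells: 293T.144 carrying wild-type and 293T.165 carrying G810R HiBiT-RET kinase domain; curves yield DC50 and Emax.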

RET(KD: 658-1114 G810R) = molecular target: T2, RET(KD: 658-1114 G810R) (Homo sapiens, UniProt P07949, G810R); assay: HiBiT-Degradation, RET G810R degradation assay (Nano-Glo HiBiT Lytic), 293T.165 cells; format: cell-based; conditions: for Emax / DC50: 6.0 hours
T2 construct: 658-1114; expressed in transfected cells; host or cells: 293T.165 (293T cells, generated in-house)
T2 sequence (P07949 658-1114 G810R): T1 sequence (P07949 658-1114) with G153R
Method in brief: as §1

[1] = % remaining protein, read-out: 293T.165 RET(KD: 658-1114 G810R) 6.0 hours (Emax)
[2] = half-maximal degradation concentration, read-out: 293T.165 RET(KD: 658-1114 G810R) 6.0 hours (DC50)
[3] = % remaining protein, read-out: 293T.144 RET (658-1114) 6.0 hours (Emax)
[4] = half-maximal degradation concentration, read-out: 293T.144 RET (658-1114) 6.0 hours (DC50)

Structure (SMILES)	HiBiT-Degradation 293T.144 RET (658-1114) 6.0 hours (IP) [nM] (RET (658-1114); RET wild-type)	DC50 (RET (658-1114); RET wild-type, read-out: HiBiT-Degradation 293T.144 RET (658-1114) 6.0 hours (DC50))	Emax (RET (658-1114); RET wild-type, read-out: HiBiT-Degradation 293T.144 RET (658-1114) 6.0 hours (Emax))	Emax (RET(KD: 658-1114 G810R); [1])	DC50 (RET(KD: 658-1114 G810R); [2])	HiBiT-Degradation 293T.165 RET(KD: 658-1114 G810R) 6.0 hours (IP) [nM] (RET(KD: 658-1114 G810R); RET G810R)	DC50 (RET(KD: 658-1114 G810R); RET G810R, read-out: HiBiT-Degradation 293T.165 RET(KD: 658-1114 G810R) 6.0 hours (DC50))	Emax (RET(KD: 658-1114 G810R); RET G810R, read-out: HiBiT-Degradation 293T.165 RET(KD: 658-1114 G810R) 6.0 hours (Emax))	293T.144 RET (658-1114) 6.0 hours (IP) [nM] (RET (658-1114))	Emax (RET (658-1114); [3])	DC50 (RET (658-1114); [4])	293T.165 RET(KD: 658-1114 G810R) 6.0 hours (IP) [nM] (RET(KD: 658-1114 G810R))	293T.144 RET (658-1114) 6.0 hours (IP) [nM] (RET (658-1114); HiBiT-Degradation)	DC50 (RET (658-1114); HiBiT-Degradation, read-out: 293T.144 RET (658-1114) 6.0 hours (DC50))	Emax (RET (658-1114); HiBiT-Degradation, read-out: 293T.144 RET (658-1114) 6.0 hours (Emax))	293T.165 RET(KD: 658-1114 G810R) 6.0 hours (Emax) (RET(KD: 658-1114 G810R); HiBiT-Degradation)	293T.165 RET(KD: 658-1114 G810R) 6.0 hours (IP) [nM] (RET(KD: 658-1114 G810R); HiBiT-Degradation)	DC50 (RET(KD: 658-1114 G810R); HiBiT-Degradation, read-out: 293T.165 RET(KD: 658-1114 G810R) 6.0 hours (DC50))
CC(C)NC(=O)C1(C)CCN(c2ccc(-c3cc(-c4cnn([C@H]5CC[C@H](CCN6CCC(c7ccc8c(N9CCC(=O)NC9=O)nn(C)c8c7)CC6)CC5)c4)cn4ncc(C#N)c34)cn2)CC1 [Compound 86, 1-[5-[3-cyano-6-[1-[(1r,4r)-4-[2-[4-[3-(2,4-dioxohexahydropyrimidin-1-yl)-1-methyl-indazol-6-1]-1-piperidyl]ethyl]cyclohexyl]pyrazol-4-yl]pyrazolo[1,5-a]pyridin-4-yl]-2-pyridyl]-N-isopropyl-4-methyl-piperidine-4-carboxamide]	++++ (< 50 nM = ++++)	< 50 nM	< 30%	< 30%	< 100 nM	++++ (< 50 nM = ++++)	< 100 nM	< 30%										
CCC1(C(=O)Nc2ccc(F)cc2)CCN(c2ccc(-c3nc(-c4cnn(C5CCN(C(=O)CC6(O)CCN(c7ccc(NC8CCC(=O)NC8=O)cc7F)CC6)CC5)c4)cn4ncc(C#N)c34)cn2)CC1 (stereo not shown) [Compound 101, 1-[5-[3-cyano-6-[1-[1-[2-[1-[4-[(2,6-dioxo-3-piperidyl)amino]-2-fluoro-phenyl]-4-hydroxy-4-piperidyl]acetyl]-4-piperidyl]pyrazol-4-yl]pyrazolo[1,5-a]pyrazin-4-yl]-2-pyridyl]-4-ethyl-N-(4-fluorophenyl)piperidine-4-carboxamide]				< 30%	< 50 nM				++++ (<50 nM = ++++)	< 30%	< 50 nM	++++ (<50 nM = ++++)						
CCC1(C(=O)NC2CCCC2)CCN(c2ccc(-c3nc(-c4cnn([C@H]5CC[C@H](N6CCC(c7ccc(N[C@@H]8CCC(=O)NC8=O)cc7F)CC6)CC5)c4)cn4ncc(C#N)c34)cn2)CC1 [Compound 142, 1-[5-[3-cyano-6-[1-[4-[4-[4-[[(3R)-2,6-dioxo-3-piperidyl]amino]-2-fluoro-phenyl]-1-piperidyl]cyclohexyl]pyrazol-4-yl]pyrazolo[1,5-a]pyrazin-4-yl]-2-pyridyl]-N-cyclopentyl-4-ethyl-piperidine-4-carboxamide]				< 30%	< 50 nM				++++ (<50 nM = ++++)	< 30%	< 50 nM	++++ (<50 nM = ++++)						

Now from value to compound:

HiBiT-Degradation 293T.144 RET (658-1114) 6.0 hours (IP) [nM] (RET (658-1114); RET wild-type)	DC50 (RET (658-1114); RET wild-type, read-out: HiBiT-Degradation 293T.144 RET (658-1114) 6.0 hours (DC50))	Emax (RET (658-1114); RET wild-type, read-out: HiBiT-Degradation 293T.144 RET (658-1114) 6.0 hours (Emax))	Emax (RET(KD: 658-1114 G810R); [1])	DC50 (RET(KD: 658-1114 G810R); [2])	HiBiT-Degradation 293T.165 RET(KD: 658-1114 G810R) 6.0 hours (IP) [nM] (RET(KD: 658-1114 G810R); RET G810R)	DC50 (RET(KD: 658-1114 G810R); RET G810R, read-out: HiBiT-Degradation 293T.165 RET(KD: 658-1114 G810R) 6.0 hours (DC50))	Emax (RET(KD: 658-1114 G810R); RET G810R, read-out: HiBiT-Degradation 293T.165 RET(KD: 658-1114 G810R) 6.0 hours (Emax))	293T.144 RET (658-1114) 6.0 hours (IP) [nM] (RET (658-1114))	Emax (RET (658-1114); [3])	DC50 (RET (658-1114); [4])	293T.165 RET(KD: 658-1114 G810R) 6.0 hours (IP) [nM] (RET(KD: 658-1114 G810R))	293T.144 RET (658-1114) 6.0 hours (IP) [nM] (RET (658-1114); HiBiT-Degradation)	DC50 (RET (658-1114); HiBiT-Degradation, read-out: 293T.144 RET (658-1114) 6.0 hours (DC50))	Emax (RET (658-1114); HiBiT-Degradation, read-out: 293T.144 RET (658-1114) 6.0 hours (Emax))	293T.165 RET(KD: 658-1114 G810R) 6.0 hours (Emax) (RET(KD: 658-1114 G810R); HiBiT-Degradation)	293T.165 RET(KD: 658-1114 G810R) 6.0 hours (IP) [nM] (RET(KD: 658-1114 G810R); HiBiT-Degradation)	DC50 (RET(KD: 658-1114 G810R); HiBiT-Degradation, read-out: 293T.165 RET(KD: 658-1114 G810R) 6.0 hours (DC50))	Structure (SMILES)
			< 30%	< 50 nM				++++ (<50 nM = ++++)	< 30%	< 50 nM	++++ (<50 nM = ++++)							CCC1(C(=O)NC(C)(C)C)CCN(c2ccc(-c3nc(-c4cnn([C@H]5CC[C@H](N6CCC(c7ccc(N[C@@H]8CCC(=O)NC8=O)cc7F)CC6)CC5)c4)cn4ncc(C#N)c34)cn2)CC1 (single isomer, unassigned) [Compound 146]
			< 30%	< 50 nM								++++ (< 50 nM = ++++)	< 50 nM	< 30%	++++ (< 30% = ++++)	++++ (< 50 nM = ++++)	< 50 nM	N#Cc1cnn2cc(-c3cnn(C4CCN(C(=O)CC5(O)CCN(c6ccc(NC7CCC(=O)NC7=O)cc6F)CC5)CC4)c3)nc(-c3ccc(N4CCC(c5ncccn5)CC4)nc3)c12 (stereo not shown) [Compound 36, 6-[1-[1-[2-[1-[4-[(2,6-dioxo-3-piperidyl)amino]-2-fluoro-phenyl]-4-hydroxy-4-piperidyl]acetyl]-4-piperidyl]pyrazol-4-yl]-4-[6-(4-pyrimidin-2-yl-1-piperidyl)-3-pyridyl]pyrazolo[1,5-a]pyrazine-3-carbonitrile]
